Our source for the TGI and GI50 values is PubChem BioAssay (NCI).

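Five concentrations, 48 hours, 96-well plates. GI50 is the concentration that inhibits growth by half. TGI: concentration producing complete growth inhibition.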 Where only a bound is given, the exact number is not on record here.

What all share (assay): NCI anticancer screen, dose series, 48 h
Experiment [1] concerns EKVX NSCLC.
For experiment [2], the system named is SR leukemia.
Experiment [3] deals with OVCAR-4 ovarian.
In experiment [4] the test system is OVCAR-5 ovarian.
The subject of experiment [5] is M14 melanoma.
Experiment [6] has as its system UACC-257 melanoma.
In experiment [7] the test system is A498 renal.

As to `O=C1C(Br)=CC2(C=C1Br)CCNC1=C2C(=O)c2cccnc2C1=O`, the TGI worked out at 28.5 µM in experiment [1]; 18.5 µM in experiment [2]; 31.2 µM in experiment [3]; 33.1 µM in experiment [4]; 21.3 µM in experiment [5]; 21.3 µM in experiment [6].
Take `CCOC(=O)/C=C(\C(=O)OCC)n1ccc(N)nc1=O`: the TGI in experiment [1], in experiment [2], in experiment [3], in experiment [4], in experiment [5] and in experiment [6] was above 100 µM in each case.
For the molecule `COc1cc(/C=C2\N=C(c3ccccc3)N(c3nc4c(OC)ccc(OC)c4s3)C2=O)cc(OC)c1OC`, the TGI in experiment [1], in experiment [7], in experiment [3], in experiment [4], in experiment [5] and in experiment [6] was above 100 µM throughout.
`O=c1[nH]nc(-c2ccccc2)n1/N=C/c1c(O)ccc2ccccc12`: the TGI in experiment [1] is above 100 µM; in experiment [2] it was above 100 µM; in experiment [3] it was 45.7 µM; in experiment [4], above 100 µM; in experiment [5], above 100 µM; in experiment [6], above 100 µM.
As for `O=C(c1ccccc1)c1ccc2nc(-c3c(Cl)c(Cl)c(Cl)c(Cl)c3C(=O)N/N=C/c3ccccc3)[nH]c2c1`, the TGI in experiment [1] is 60.2 µM; in experiment [3] it was 83.5 µM; in experiment [4], above 100 µM; in experiment [5] it was above 100 µM; in experiment [6], 85 µM.
In the case of `O=C(NC1CCN(Cc2ccccc2)CC1)c1cc2nc(-c3ccc(Cl)s3)cc(C(F)(F)F)n2n1`, the GI50 was 2.13 µM in experiment [2] and 12.7 µM in experiment [3]. Moreover, the TGI turned out to be 4.97 µM in experiment [2] and 49.3 µM in experiment [3].
In the case of `Nc1ccccc1N/C=C\C(=O)C(Cl)(Cl)Cl`, the TGI in experiment [1] was 30.5 µM; in experiment [7] it was 38.9 µM; in experiment [3], 44.4 µM; in experiment [4] it was 45.6 µM; in experiment [5], 31.8 µM; in experiment [6], 64.2 µM.
For the molecule `CCCNC(C#N)c1ccc(C(C#N)NCCC)cc1` (centres undefined), the TGI in experiment [1], in experiment [7], in experiment [3], in experiment [4], in experiment [5] and in experiment [6] was above 100 µM in each case.
Consider `CC(=O)OC(OC(C)=O)n1cc(C=O)c2ccccc21`, for which the TGI in experiment [2], in experiment [7], in experiment [3], in experiment [4], in experiment [5] and in experiment [6] was above 100 µM throughout.
Take `Cc1cn(CC2=NCC(C)(C)N2)c(=O)[nH]c1=O`: the TGI in experiment [1], in experiment [2], in experiment [7], in experiment [4], in experiment [5] and in experiment [6] was above 100 µM in each case.
For `COC(=O)/C=C1\CCC(C)(C(=O)NS(=O)(=O)c2ccc(C)cc2)C1(C)C` (centres undefined), the TGI in experiment [1], in experiment [7], in experiment [3], in experiment [4], in experiment [5] and in experiment [6] was above 100 µM each time.
In the case of `CN(C)Cc1cc(O)c(O)c(CN(C)C)c1`, the TGI in experiment [1] was 71.5 µM; in experiment [7] it was above 100 µM; in experiment [3], above 100 µM; in experiment [4], above 100 µM; in experiment [5] it was 59.3 µM; in experiment [6], 45.9 µM.
Consider `Cc1ccc(C(C2C(=O)N(C)C(=O)N(C)C2=O)C(F)(F)C(=O)N(C)C)cc1` (centres undefined), for which the TGI in experiment [1], in experiment [7], in experiment [3], in experiment [4], in experiment [5] and in experiment [6] was above 100 µM in each case.
On to `CCCCCCCCCCCCCCCCCCNc1ccn(C2OC(COP(=O)(O)OCC3OC(n4cc(C)c(=O)[nH]c4=O)CC3N=[N+]=[N-])C(O)C2O)c(=O)n1` (centres undefined), for which the TGI in experiment [1] was 48.5 µM; in experiment [2], 80 µM; in experiment [3], 83.9 µM; in experiment [4], 34.2 µM; in experiment [5], 36.1 µM; in experiment [6], 76.3 µM.
With `Cc1ccc(N2CCc3c(C)c(C#N)c4nc5ccccc5n4c32)cc1`, the TGI in experiment [2], in experiment [3], in experiment [4] and in experiment [6] was above 100 µM in each case.
Regarding `C=CCNC(=O)NC1=CSC2=NC(=O)C3(NN12)c1ccccc1-c1ccccc13`, the TGI in experiment [1], in experiment [2], in experiment [3], in experiment [4], in experiment [5] and in experiment [6] was above 10 µM in each case.
`O=c1[nH]c(=O)n(Cc2ccccc2CO)cc1Sc1ccccc1`: the TGI in experiment [1] is 60.8 µM; in experiment [2] it was above 100 µM; in experiment [3] it was above 100 µM; in experiment [4] it was above 100 µM; in experiment [5], 41.2 µM; in experiment [6], 72.4 µM.
For `Cc1cc(-c2nc3ccccc3s2)ccc1NC(=O)[C@H](C)N`, the TGI is 13.4 µM in experiment [2]; 28.6 µM in experiment [7]; 26.2 µM in experiment [3]; 19.1 µM in experiment [4]; 19.2 µM in experiment [5]; 33.2 µM in experiment [6].
Take `CSC1=C(C#N)C(=O)N(c2ccc(C)cc2)C(=S)C1C#N` (centres undefined): the TGI in experiment [1], in experiment [7], in experiment [3], in experiment [4], in experiment [5] and in experiment [6] was above 100 µM throughout.
`O=C(OCc1ccccc1)C1(N2CN(C3(C(=O)OCc4ccccc4)CCCC3)CN(C3(C(=O)OCc4ccccc4)CCCC3)C2)CCCC1`: the TGI in experiment [1], in experiment [2], in experiment [3], in experiment [4], in experiment [5] and in experiment [6] was above 10 µM each time.
Turning to `C=C(CC[C@@H](C(=O)O)[C@H]1[C@H](O)C[C@@]2(C)C3=CC[C@@H](C(=C)C)[C@](C)(CCC(=O)O)C3=CC[C@]12C)C(C)C`, the TGI was 32.3 µM in experiment [1]; 38.8 µM in experiment [7]; 36.3 µM in experiment [3]; 30.5 µM in experiment [4]; 32.7 µM in experiment [5]; 30.6 µM in experiment [6].
Consider `COc1ccc2c(c1)N=C1CSC(c3ccccc3Cl)N1C2` (centres undefined), for which the TGI came to 22 µM in experiment [1]; 16 µM in experiment [2]; 35.6 µM in experiment [3]; 28.2 µM in experiment [4]; 28.3 µM in experiment [5]; 32.7 µM in experiment [6].
`CC(C)c1ccc(/C=C2\CSCC3=C2NC(=S)NC3c2ccc(C(C)C)cc2)cc1` (centres undefined): the TGI in experiment [1], in experiment [2], in experiment [3], in experiment [4], in experiment [5] and in experiment [6] was above 100 µM in each case.
As for `COC(=O)/C=C/c1cc(O)c2c(c1)[C@H](C(=O)OC)[C@@H](c1ccc(O)c(O)c1)O2`, the TGI in experiment [1] was above 85 µM; in experiment [7], above 28 µM; in experiment [3], above 100 µM; in experiment [4] it was above 100 µM; in experiment [5], above 45.2 µM; in experiment [6], above 100 µM.
On to `C1CCC(OC2CSC2)OC1` (centres undefined), for which the TGI in experiment [2], in experiment [7], in experiment [3], in experiment [5] and in experiment [6] was above 100 µM in each case.
As to `O=C1C=C(Br)c2c(Br)sc(Br)c21`, the TGI in experiment [1] was 37.3 µM; in experiment [2], above 100 µM; in experiment [3] it was 34.4 µM; in experiment [4], 41.3 µM; in experiment [5] it was 15 µM; in experiment [6], 12.6 µM.
Regarding `CC(CO)C1C[C@H](O)[C@@]2(C)CC(=O)C=C(CO)[C@@H]2C1` (some centres undefined), the TGI in experiment [1], in experiment [7], in experiment [3], in experiment [4], in experiment [5] and in experiment [6] was above 100 µM throughout.
Take `COP(=O)(OC)C(Cc1c[nH]c2ccccc12)NC(=O)OCc1ccccc1` (centres undefined): the TGI in experiment [2], in experiment [7], in experiment [3], in experiment [4], in experiment [5] and in experiment [6] was above 100 µM in each case.
With `O=c1cc(N2CCCC2)[nH]c(=O)n1-c1cccc(C(F)(F)F)c1`, the TGI in experiment [1], in experiment [7], in experiment [3], in experiment [4], in experiment [5] and in experiment [6] was above 100 µM throughout.
Regarding `CCCCc1ccc(Nc2ncc3[nH]cnc3n2)cc1`, the TGI in experiment [1] was 98.1 µM; in experiment [7], 45.4 µM; in experiment [3] it was 80.1 µM; in experiment [4], above 100 µM; in experiment [5], 38.9 µM; in experiment [6], 59 µM.
